Laboratory results as given in BindingDB's records for doi:10.1021/acschembio.5b01047 (National Institutes of Health, 2016).
Residue numbers refer to the chain shown, from its start.

Columns and labels:
Details in all cases: pH 7.5
[1] = target: Tyrosyl-DNA phosphodiesterase 2 [E242G,S244A,Q278R,I281T,K282R,R316G,P318T,Y321C] (Mus musculus, UniProt Q9JJX7, E242G/I281T/K282R/P318T/Q278R/R316G/S244A/Y321C); assay: Recombinant TDP2 Assay
Method: (§1) TDP2 reactions were carried out as described previously23 with the following modifications.

[2] = target: T1, Tyrosyl-DNA phosphodiesterase 2 [E242G,S244A,Q278R,I281T,K282R,R316G,P318T,Y321CH323L] (Mus musculus, UniProt Q9JJX7, E242G/I281T/K282R/P318T/Q278R/R316G/S244A/Y321CH323L); assay: Recombinant TDP2 Assay
T1 sequence (Q9JJX7 whole entry): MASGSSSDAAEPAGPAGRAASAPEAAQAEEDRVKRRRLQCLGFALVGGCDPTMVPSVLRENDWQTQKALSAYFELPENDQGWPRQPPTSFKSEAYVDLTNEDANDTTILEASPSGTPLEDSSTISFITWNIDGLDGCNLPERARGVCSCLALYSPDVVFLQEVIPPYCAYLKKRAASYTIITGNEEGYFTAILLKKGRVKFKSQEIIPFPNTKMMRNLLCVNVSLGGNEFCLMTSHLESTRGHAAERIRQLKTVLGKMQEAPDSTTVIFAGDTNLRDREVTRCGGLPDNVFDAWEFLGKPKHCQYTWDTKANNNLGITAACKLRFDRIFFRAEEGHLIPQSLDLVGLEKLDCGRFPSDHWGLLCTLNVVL
Method: as §1

[3] = target: T2, Tyrosyl-DNA phosphodiesterase 2 (Mus musculus, UniProt Q9JJX7); assay: Recombinant TDP2 Assay
T2 sequence (Q9JJX7 whole entry): T1 sequence (Q9JJX7 whole entry) with G242E, A244S, R278Q, T281I, R282K, G316R, T318P, C321Y, L323H
Method: as §1

[4] = target: T3, Tyrosyl-DNA phosphodiesterase 2 (Homo sapiens, UniProt O95551); assay: TDP2 Assays with Whole Cell Extracts
T3 sequence (O95551 whole entry): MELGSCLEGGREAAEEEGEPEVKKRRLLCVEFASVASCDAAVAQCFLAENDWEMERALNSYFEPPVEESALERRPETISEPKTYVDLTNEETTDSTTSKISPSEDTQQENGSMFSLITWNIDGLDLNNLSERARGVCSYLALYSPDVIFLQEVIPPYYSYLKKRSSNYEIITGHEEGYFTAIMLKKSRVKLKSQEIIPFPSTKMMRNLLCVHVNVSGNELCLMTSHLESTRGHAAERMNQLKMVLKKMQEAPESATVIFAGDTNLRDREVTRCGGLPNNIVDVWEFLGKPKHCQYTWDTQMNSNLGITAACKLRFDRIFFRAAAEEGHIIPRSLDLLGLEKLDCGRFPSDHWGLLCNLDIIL
Method: Cell pellets were then resuspended in 100 uL of CelLytic M cell lysis reagent (SIGMA-Aldrich C2978). After 15 min on ice, lysates were centrifuged at 12 000g for 10 min, and supernatants were transferred to a new tube. Protein concentrations were determined using a Nanodrop spectrophotometer (Invitrogen), and whole cell extracts were stored at -80 °C. […] Reactions were terminated and samples analyzed.

[5] = target: T3, Tyrosyl-DNA phosphodiesterase 2; assay: Recombinant TDP2 Assay
Method: as §1

Sequence of Tyrosyl-DNA phosphodiesterase 2 [E242G,S244A,Q278R,I281T,K282R,R316G,P318T,Y321C] (Q9JJX7 whole entry E242G/S244A/Q278R/I281T/K282R/R316G/P318T/Y321C): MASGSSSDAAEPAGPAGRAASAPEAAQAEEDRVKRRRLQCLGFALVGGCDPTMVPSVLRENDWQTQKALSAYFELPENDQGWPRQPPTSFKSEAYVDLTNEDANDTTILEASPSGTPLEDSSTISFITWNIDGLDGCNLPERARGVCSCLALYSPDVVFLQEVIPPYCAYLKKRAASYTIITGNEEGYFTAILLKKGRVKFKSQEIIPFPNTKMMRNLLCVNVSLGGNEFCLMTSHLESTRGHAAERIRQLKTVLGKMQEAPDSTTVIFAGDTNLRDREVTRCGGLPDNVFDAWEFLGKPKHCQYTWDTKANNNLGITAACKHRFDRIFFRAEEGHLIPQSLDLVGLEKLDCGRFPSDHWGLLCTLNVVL

| SMILES | IC50 [1] | IC50 [2] | IC50 [3] | IC50 [4] | IC50 [5] |
| --- | --- | --- | --- | --- | --- |
| N#Cc1ccc2cc3c(=O)[nH]c(=O)nc-3n(-c3ccc(O)cc3)c2c1 | 1.1 µM | 0.17 µM | > 111 µM |  |  |
| O=c1nc2n(-c3ccc(O)cc3)c3cc(Cl)ccc3cc-2c(=O)[nH]1 | 35 µM | 4 µM | > 111 µM | 2.3 µM | 3.9 µM |
